This is an account of results in patent US20190008983A1, “EXTRACELLULAR DRUG CONJUGATES TARGETING CD20” (priority 2015, published 2019).

In data set [1] the test system is CD20 positive cell line SUDHL4. Kind of data set: Cell proliferation/cytotoxicity assay (CellTiter-Glo) on SUDHL4 cells. It counts as cell-based, Human. The note with it: for EC50: read-out: EC50 in picoM, SUDHL4; for % viab., SUDHL4: figure in brackets after EC50. On the procedure: (§1) These cell lines are the Ramos (Human Burkitt's lymphoma) and SUDHL4 (Non-Hodgkin lymphoma) cell lines. […] Cell viability was then analyzed using the CellTiter-Glo luminescent cell viability assay and standard package insert protocol of the manufacturer (Promega, Madison, Wis.).

Data set [2] relates to CD20 positive cell line Ramos. Put plainly: Cell proliferation/cytotoxicity assay (CellTiter-Glo) on Ramos cells. The class given is cell-based, Human. Particulars: for % viab., Ramos: figure in brackets after EC50; for % viab., Ramos / EC50: 72 hours incubation; for EC50: CellTiter-Glo, Tables 1-2, read-out: EC50 in picoM, Ramos. As to the method: as §1
(ATP-based viability assays read luminescence as a measure of living cells.)

[3] abbreviates: 72 hours incubation, CellTiter-Glo, Tables 1-2.

As usually defined, the EC50 is the concentration giving half of the maximal effect.

Where two headings read alike, the source gives them in different places.

For the compound `C[C@]12CC[C@H](O)C[C@H]1CC[C@@H]1[C@@H]2CC[C@]2(C)[C@@H](c3ccc(=O)oc3)CC[C@]12O` [Bufalin, reference compound], the EC50 in data set [1] (Homo sapiens, SU-DHL-4, 72 h) stood at 16 nM.
As for `C[C@]12CC[C@H](OC3OC[C@H](N)[C@@H](O)[C@@H]3O)C=C1CC[C@@H]1[C@@H]2CC[C@]2(C)[C@@H](c3ccc(=O)oc3)CC[C@]12O` (stereo partly shown) [CEN09-106], in data set [1] (72 hours incubation), the “% viab., SUDHL4” value is given as 0%. Besides, the “% viab., Ramos” value in data set [2] was 0%. In data set [2] (in the absence of complement, FIG. 8), the “activity on Ramos cells in FIG. 8 study” value is on record as “significant but much less potent activity”.
In the case of `CC12CCC(OC(=O)N3CCNCC3)CC1CCC1C2CCC2(C)C(c3ccc(=O)oc3)CCC12O` (stereo not shown) [CEN-371], the EC50 in data set [1] (setting [3]) stood at 11 nM. In addition, in data set [1] (72 hours incubation), the “% viab., SUDHL4” value worked out at 0%. In data set [2], the concentration for a half-maximal effect (EC50) was 7.81 nM and the “% viab., Ramos” value stood at 0%.
With `CN(CCCN)CCCNC(=O)O[C@H]1CC[C@@]2(C)[C@H](CC[C@@H]3[C@@H]2CC[C@]2(C)[C@H](c4ccc(=O)oc4)CC[C@]32O)C1` [CEN-372], the EC50 was determined as 4.4 nM in data set [1] (setting [3]) and 3.6 nM in data set [2].
In the same order, the values of `C[C@]12CC[C@H](OC(=O)NCCCNCCCN)C[C@H]1CC[C@@H]1[C@@H]2CC[C@]2(C)[C@H](c3ccc(=O)oc3)CC[C@]12O` [CEN-373] are 5.9 nM and 4 nM.
As for `C[C@]1(OC(=O)NCCCN2CCN(CCCN)CC2)CC[C@@]2(C)[C@H](CC[C@@H]3[C@@H]2CC[C@]2(C)[C@@](C)(C4=CC(=O)OC4)CC[C@]32O)C1` [CEN-381], the 50% effective concentration (EC50) in data set [1] (setting [3]) and in data set [2] was more than 50 nM each time.
As for `C[C@]12CC[C@H](O)C[C@H]1CC[C@@H]1[C@@H]2CC[C@]2(C)[C@@H](C3=CC(=O)OC3)CC[C@]12O` [Digitoxigenin, reference compound], the EC50 in data set [1] (Homo sapiens, SU-DHL-4, 72 h) is more than 50 nM.
`C[C@]12CC[C@H](O)C=C1CC[C@@H]1[C@@H]2CC[C@]2(C)[C@@H](c3ccc(=O)oc3)CC[C@]12O` [Scillarenin, reference compound]: the EC50 in data set [1] (Homo sapiens, SU-DHL-4, 72 hours incubation, CellTiter-Glo, Tables 1-2) was determined as 18 nM.
